From ChEMBL document CHEMBL1157539, “Thousands of chemical starting points for antimalarial lead identification” (Nature, 2010)

System: Plasmodium falciparum
Test: GSK_TCMDC: Inhibition of Plasmodium falciparum 3D7 in whole erythrocytes, using parasite LDH activity as an index of growth.
Format: functional, organism-based
Conditions: Plasmodium falciparum, 3D7

SMILES	XC50 [nM]
CCOc1ccc2nc(C)cc(N/N=C/c3cccc([N+](=O)[O-])c3)c2c1	664
O=C(/C=C/c1ccc([N+](=O)[O-])cc1)N1CCC(CCN2CCC(c3c[nH]c4ccccc34)CC2)CC1	743
CC1CCN(Cc2c(O)ccc3c(O)c(-c4nc5ccccc5s4)c(=N)oc23)CC1	162
CCN(CC)CCN(Cc1ccc(-c2ccc(C(F)(F)F)cc2)cc1)C(=O)Cn1c(CCc2cccc(F)c2F)cc(=O)c2c1CCCC2	866
CN(C)Cc1c(O)ccc2[nH]c(-c3cccc(F)c3)nc12	1000
c1ccc(OCCOc2ccc(Nc3ccnc4cc5ccccc5cc34)cc2)cc1	252
Cc1ccc(/C=C/C(=O)NCCCCCN2CCC(c3c[nH]c4ccccc34)CC2)cc1	1010
Cc1cc(CN2C(=O)C(c3ccccc3)(c3ccccc3)N=C2N)c(C(F)(F)F)o1	956
Oc1cccc(-c2nc(-c3cccc(I)c3)c(-c3ccc(-c4nc(-c5cccc(O)c5)[nH]c4-c4cccc(I)c4)cc3)[nH]2)c1	925
CC1(C)NC(N)=NC(=N)N1OCCCOc1ccc(N)cc1	7.04
COc1cc(F)c2ncc(Cl)c([C@@H](O)CN3CCC(NCc4cc5c(cn4)OCCO5)CC3)c2c1	102
CC(=O)C1(c2ccccc2)CCN(CCC2(c3ccc(Cl)c(Cl)c3)CN(C(=O)Nc3cccc(C(F)(F)F)c3)CCO2)CC1 (stereo unspecified)	1050
O=C(Cc1ccccc1)NC(c1ccco1)c1cc(Cl)c2cccnc2c1O (stereo unspecified)	691
COc1cc(OC)c2c(c1Cl)O[C@]1(C2=O)C(=O)C(Cc2ccccc2)(Cc2ccccc2)C(=O)C[C@H]1C	974
COc1ccc2nccc(NCC3(O)CCC(NCc4ccc5c(n4)NC(=O)CS5)CC3)c2n1 (stereo unspecified)	689
CN1CCN(c2cc(NC(=O)c3ccc(-c4ccc(C#N)cc4)cc3)ccc2Cl)CC1	464
Oc1ccc(CN2CCC(N3CCN(CCc4ccccc4)CC3)C(O)C2)cc1Cl (stereo unspecified)	865
CCC(C)NS(=O)(=O)c1ccc2nc(Nc3ccc(C)cc3)n([C@H](C)C(C)(C)C)c2c1 (stereo partly specified)	391
COc1cc(/C=C/C(=O)NC2CCC(N3CCC(c4ccccc4C)CC3)CC2)cc(OC)c1 (stereo unspecified)	979
CCCOc1cc(NC(=O)Nc2ccnc3ccccc23)cc(OCCC)c1	732
Cc1ccnc(-n2c(C)cc(C=C3SC(=Nc4ccccc4)N(Cc4ccco4)C3=O)c2C)c1	237
O=C(/C=C/c1ccc(Cl)c(Cl)c1)NCCCCCN1CCC(NC(=O)Nc2cc(F)ccc2F)CC1	697
Cc1cccc2nc(-c3cccc(-c4ccc(NC(=O)C(C)CN(C)C)cc4)c3)[nH]c12 (stereo unspecified)	222
Cc1ccccc1Oc1nc2ccccc2nc1SCC(=O)NC(C)C	197

SMILES	XC50 [nM]
O=C(/C=C/c1ccc(Cl)c(Cl)c1)N1CCC(CN2CCC(c3c[nH]c4ccc(NS(=O)(=O)c5cccs5)cc34)CC2)CC1	218
Cc1ccccc1N1CCN(c2ccc(C(=O)NC3CC3)cn2)CC1	459
O=C(Nc1cccc(CN2CCN(Cc3ccc(O)cc3)CC2)c1)c1cc2ccccc2o1	1180
CCN1CCN(c2cc(C)c3cc(NC(=O)c4cccc(C(F)(F)F)c4)ccc3n2)CC1	568
CCC(C)(C)C1CCc2nc(N)nc(N)c2C1 (stereo unspecified)	6.38
COc1cccc(C=NN=c2cc(C)[nH]c3ccccc23)c1	937
CC1CCCCC1N(C)C1CCN(CCCNC(=O)C=Cc2ccccc2Cl)CC1 (stereo unspecified)	666
Cc1cc(CNCCCCCCCNCc2ccc(Cl)cc2)ccc1O	975
Cc1ccc(NC(=O)Nc2ccc(Cl)c(C(F)(F)F)c2)cc1-c1ccc(C(=O)NCCN2CCOCC2)cc1	811
c1ccc2c(NCCOCCNc3c4ccccc4nc4ccccc34)c3ccccc3nc2c1	878
CCCN(CCC)C(C)CCC(C)Nc1c2ccc(Cl)cc2nc2ccc(OC)cc12 (stereo unspecified)	70.8
NC(=O)c1sc(-n2cnc3ccc(OCC4CCNCC4)cc32)cc1OCc1ccccc1C(F)(F)F	753
CC(C#N)Cc1ccc(-c2cnc(N)c3cc(-c4ccnc(N)n4)ccc23)cc1 (stereo unspecified)	986
CO/C(=C\C=C\c1cc2cc(Cl)c(Cl)cc2[nH]1)C(=O)NC1CC2CCC(C1)N2C (stereo unspecified)	1030
CC(=O)Nc1ccc(CN2CCC(NC(=O)c3ccc(-c4ccc(N(C)C)cc4)s3)CC2)cc1	869
CC(C)(C)OC(=O)Nc1cccc(-c2csc(NC(=N)N)n2)c1	836
CC(C)CCN1CCC(Oc2cccc(NC(=O)c3ccc(C(F)(F)F)cc3)c2)CC1	630
Cc1ccc(NS(=O)(=O)c2cccs2)cc1-c1cccc(C(=O)Nc2ccc(F)cc2)c1	653
CC(C)C1CCc2nc(N)nc(N)c2C1 (stereo unspecified)	139
CCCCCCN1CCCN(Cc2ccc(C(=O)Nc3ccc(C(C)(C)C)cc3)cc2)CC1	744
Cc1cccc(CN2CCN(c3ncc(C(=O)NC4CC4)cc3Cl)CC2)c1	1310
CCN(CCCN1CCCCC1)c1cc(C)nc(Nc2ccc(F)c(C(F)(F)F)c2)n1	147
CCc1cn(CC(=O)N(CCOc2ccc(-c3ccc(C(F)(F)F)cc3)cc2)CCN(CC)CC)c(SCc2ccc(F)cc2)nc1=O	777
CN(c1ccnc(Nc2ccc(CS(C)(=O)=O)cc2)n1)C1CCN(Cc2ccccc2)CC1	1400

SMILES	XC50 [nM]
COC(=O)c1ccc(CC(C)NCC(O)c2ccc3ccc4ccccc4c3c2)cc1 (stereo unspecified)	223
O=C(NCCc1ccc(Cl)c(Cl)c1)C1CCCN(C(=O)c2ccc(O)c(-c3ccc(Cl)c(Cl)c3)c2)C1 (stereo unspecified)	780
O=C(/C=C/c1ccc(Cl)c(Cl)c1)NCCCCCN1CCC(NC(=O)c2ccc(F)c(F)c2)CC1	788
COc1nc(NCC(C)C)nc(Oc2ccc(=O)n(Cc3ccccc3)n2)n1	631
COc1cc2nc(N3CCC(CNC(=O)c4ccc(-c5ccc(C(=O)N(C)C)cc5OCCO)cc4)CC3)nc(N)c2cc1OC	645
CCOc1ccc(C(C)NC(=O)C2COc3ccccc3O2)cc1OCC (stereo unspecified)	899
Cc1ccc(Cn2ncc(N3CC(C)NC(C)C3)c(Cl)c2=O)cc1NC(=O)Nc1ccc(-c2ccccc2)cc1 (stereo unspecified)	739
CN1c2ccc([N+](=O)[O-])cc2C(C)(C)C12C=Cc1cc(Br)cc([N+](=O)[O-])c1O2 (stereo unspecified)	785
CC(=O)Nc1nc(C(=O)Nc2cccc(-c3cccc(-c4nc5ccccc5[nH]4)c3)c2)cs1	172
CCC1CN2CCc3cc(OC)c(OC)cc3C2CC1CC1NCCc2c1[nH]c1ccc(O)cc21 (stereo unspecified)	103
N#Cc1ccc(-c2ccc(C(=O)Nc3ccc4c(c3)CCN(C3CCC3)CC4)nc2)cn1	1160
CC(=O)Oc1cc(C)ccc1C1CCN(CCCCNC(=O)c2ccc(NC(=O)c3ccc(Cl)cc3)cc2)CC1	721
COc1ccc(NC(=O)[C@H](Cc2ccccc2)Nc2cc(C)nc(NCCc3ccc(F)cc3)n2)cc1	1120
C=CCc1cc(OC)ccc1OCCCOc1c(C)nc(N)nc1N	3.2
O=C(NCCN1CCC(NC(=O)c2ccc(-c3ccccn3)s2)CC1)c1ccc(Cl)c(Cl)c1	881
CN(C)CCCOc1ccccc1CN1CC[C@H](NC(=O)c2ccc(Cl)c(Cl)c2)C1	1110
Cc1[nH]c2ccc(C#N)cc2c(=O)c1Br	640
O=c1ccc(CNc2nc(NCCc3ccccc3)nc3ccc(Cl)cc23)c[nH]1	783
Cc1cc(O)nc(NC(=N)NOCCCc2ccccc2)n1	760
O=C(/C=C/c1ccc(Cl)c(Cl)c1)NCCCCCN1CCCC(C(=O)Nc2ccc(Cl)cc2)C1 (stereo unspecified)	851
Cc1[nH]c2ccc(NS(C)(=O)=O)cc2c1C1CCN(CCC2CCN(C(=O)/C=C/c3ccc(Cl)c(Cl)c3)CC2)CC1	844
CCCCNc1cc(NCCCC)c2c(n1)[nH]c1ccccc12	570
C=CCc1cc(Br)ccc1OCCCOc1c(N)nc(N)nc1N	192
CC(C)(C)C(C)(C)Cc1ccc(O)c(CN2CCN(c3ccccc3)CC2)c1	601

SMILES	XC50 [nM]
CCNc1cc(C(=O)N[C@@H](Cc2ccccc2)[C@H](O)CNC(C)Cc2cccc(Cl)c2)cc(N2CCCCS2(=O)=O)c1 (stereo partly specified)	496
Cc1ccc(-n2c(=O)c3c(n4c(SC(C)C)nnc24)-c2ccccc2CC32CCCCC2)cc1	946
O=S(=O)(c1ccc(OCc2ccc(Cl)cc2)cc1)c1cc2c(cc1OCc1ccccc1)CCN(C1CCC1)CC2	1020
Cc1ccccc1-c1nc2c(CN3CCC(O)(c4ccccc4)CC3)c(O)ccc2[nH]1	866
O=C(Nc1cccc(CN2CCCN(Cc3ccc(O)cc3)CC2)c1)c1cc2ccccc2s1	362
Fc1ccccc1COc1ccc(Nc2ncnc3ccc(-c4nnc(C(F)(F)F)o4)cc23)cc1Cl	731
Cc1ccc(N2CCN(CCCCNC(=O)c3ccc(NC(=O)c4ccc(Cl)cc4)cc3)CC2)c(C)c1	764
COc1cc(CCNc2nc(NCc3ccccc3-c3ccccc3)nc(N3CCC(N)CC3)n2)ccc1O	817
Cc1ccccc1C1CCN(C2CCC(NC(=O)/C=C/c3cccc(Cl)c3F)CC2)CC1 (stereo unspecified)	1140
NC(=O)c1ccc(-n2cnc3cc(F)ccc32)cc1OCc1ccccc1C(F)(F)F.NC(=O)c1ccc(-n2cnc3ccc(F)cc32)cc1OCc1ccccc1C(F)(F)F	363
COc1cccc(NC(=O)N2CCOC(CCN3CCC4(CCc5ccccc54)CC3)(c3ccc(Cl)c(Cl)c3)C2)c1 (stereo unspecified)	1010
O=C(NC1CCN(CCC[C@]2(c3ccc(Cl)c(Cl)c3)CCCN(C(=O)c3ccccc3)C2)CC1)c1ccc(Cl)cc1	899
COc1ccc(-n2c(=O)c3c(n4c(SC(C)C)nnc24)-c2ccccc2CC32CCCCC2)cc1	502
Cc1[nH]c2ccccc2c1C1=CCN(CCN2CCOc3c(Br)cccc3C2=O)CC1	797
c1ccc(-c2[nH]c3ccccc3c2CN2CCC(N3CCCCC3)CC2)nc1	1210
COC(=O)C1=C(C)NC2=C(C(=O)CC(c3ccc(OC)c(OC)c3)C2)C1c1cccc(O)c1 (stereo unspecified)	729
OC(CNc1ccnc(Nc2cccc(Cl)c2)n1)c1ccc(C(F)(F)F)cc1 (stereo unspecified)	768
Cc1noc(-c2ccc(O)cc2O)c1-c1ccc2c(c1)OCCCO2	892
CN(C)CCNCc1ncsc1-c1ccc2c(Nc3ccc(F)cc3Cl)ccnc2c1	1470
c1cc(COc2ccc(C3=NCCN3)cc2)nc(COc2ccc(C3=NCCN3)cc2)c1	147
N=C(N)Nc1ccc(C(=O)O)c(O)c1	1030
O=C(c1ccc(-c2ccc(-c3nc4cc(C(F)(F)F)ccc4[nH]3)s2)cc1)N1CCN(CCc2ccccc2)CC1	592
Cc1ccc(CNC(=O)[C@H](Cc2ccccc2)Nc2cc(C)nc(NCC3CCCCC3)n2)cc1	899
CN1CCC(N2CCC(Oc3cccc(C(=O)NCCCC4CCCC4)c3)CC2)CC1	843
